# Values joined by “and” are separate entries in the source; they are usually repeats but may differ in a detail not shown here. Equal values may be shown once.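 Interpolation was linear, between the two tested concentrations surrounding the appropriate level; five concentrations were tested over 48 hours in 96-well plates. GI50: concentration for 50% inhibition of growth. TGI marks complete inhibition of growth.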
# Experiments:
# Test in all cases: growth of human tumour cells (NCI), 48 h
# SK-MEL-5 melanoma = test system: SK-MEL-5 melanoma
# OVCAR-3 ovarian = test system: OVCAR-3 ovarian
# U251 CNS = test system: U251 CNS
# SNB-75 CNS = test system: SNB-75 CNS
# COLO 205 colon = test system: COLO 205 colon
# TK-10 renal = test system: TK-10 renal
# UO-31 renal = test system: UO-31 renal
# SNB-19 CNS = test system: SNB-19 CNS
# HS 578T breast = test system: HS 578T breast
# PC-3 prostate = test system: PC-3 prostate
Compound,TGI (SK-MEL-5 melanoma) [µM],TGI (OVCAR-3 ovarian) [µM],TGI (U251 CNS),TGI (SNB-75 CNS),TGI (COLO 205 colon),TGI (TK-10 renal),TGI (UO-31 renal),TGI (SNB-19 CNS) [µM],GI50 (HS 578T breast),TGI (HS 578T breast),GI50 (SK-MEL-5 melanoma) [µM],GI50 (U251 CNS),GI50 (SNB-75 CNS),GI50 (COLO 205 colon),GI50 (TK-10 renal),GI50 (UO-31 renal),GI50 (SNB-19 CNS) [µM],GI50 (PC-3 prostate),TGI (PC-3 prostate),GI50 (OVCAR-3 ovarian) [µM]
COc1cc2c(c(OC)c1OC)C(=O)NCCC2,> 100,> 100,> 100 µM,> 100 µM,> 100 µM,> 100 µM,> 100 µM,> 100,,,,,,,,,,,,
C[C@H]1CC[P+](C)(c2ccccc2)C1 (some centres not stated),> 100,> 100,> 100 µM,> 100 µM,> 100 µM,> 100 µM,> 100 µM,> 100,,,,,,,,,,,,
O=[N+]([O-])/C=C/c1ccc(Cl)cc1[N+](=O)[O-],21.5,,3.67 µM,15.9 µM,3.47 µM,3.48 µM,3.82 µM,14,8.16 µM,> 100 µM,8.47,1.95 µM,3.79 µM,1.81 µM,1.78 µM,1.55 µM,3.32,2.54 µM,8.34 µM,
O=C(O)CSc1n[nH]c(-c2ccco2)n1,> 100,> 100,> 100 µM,> 100 µM,> 100 µM,> 100 µM,> 100 µM,> 100,,,,,,,,,,,,
C#C[C@]1(O)CC[C@H]2[C@@H]3CC=C4c5nc(N)sc5CC[C@]4(C)[C@H]3CC[C@@]21C,3.63,9.84,16.4 µM,,15.8 µM,39.4 µM,10.5 µM,31.1,2.55 µM,7.94 µM,1.91,2.47 µM,,3.66 µM,11.3 µM,2.68 µM,6.2,3.66 µM,19.7 µM,3.1
N#CCc1cccc(CC#N)c1Br,,> 100,> 100 µM,> 100 µM,> 100 µM,,> 100 µM,> 100,,,,,,,,,,,,
COc1cc(-c2nn(-c3cccc(NC(=O)CCN4CCN(c5ccccc5)CC4)c3)cc2-c2ccncc2)ccc1Cl,5.36,9.73,> 100 µM,> 100 µM,,> 100 µM,48 µM,> 100,4.61 µM,> 100 µM,2.19,3.13 µM,4.13 µM,,3.69 µM,2.9 µM,4.38,3.1 µM,> 100 µM,2.68
Cc1ccc2ccc(-c3ccccc3)c3c2c1C(=O)c1ccccc1C3=O,> 100,> 100,> 100 µM,68.7 µM,> 100 µM,> 100 µM,> 100 µM,> 100,,,,,,,,,,,,
Cc1ccc(S(=O)C(C)C(Cl)c2ccccc2)cc1 (configuration not stated),> 100,> 100,> 100 µM,> 100 µM,> 100 µM,> 100 µM,> 100 µM,,,,,,,,,,,,,
CCCCCCCCCCCCCCCC[n+]1ccccc1,,1.5,1.36 µM and 1.92 µM,1.72 µM and 2.78 µM,0.702 µM and 1.85 µM,0.518 µM and 1.66 µM,2.33 µM and 2.85 µM,1.9,1.46 µM and 1.67 µM,4.64 µM and 4.84 µM,,0.326 µM and 0.535 µM,0.528 µM and 0.609 µM,0.255 µM and 0.495 µM,0.207 µM and 0.432 µM,0.795 µM and 1.16 µM,0.559,0.243 µM and 0.244 µM,0.846 µM and 0.692 µM,0.366
Cn1cnnc1[S-].[Au+].c1ccc([PH+](c2ccccc2)c2ccccc2)cc1,2.91,3.18,,2.74 µM,,3.2 µM,3.01 µM,3.02,,,1.46,,1.43 µM,,1.72 µM,1.65 µM,1.62,1.52 µM,3.02 µM,1.79
O=C(O)c1ccccc1NCn1c(=S)sc2ccccc21,,> 100,> 100 µM,> 100 µM,56.7 µM,> 100 µM,> 100 µM,> 100,,> 100 µM,,,,,,,,,> 100 µM,
Cc1ccc(C2CC(c3ccc(Nc4ccnc5cc(Cl)ccc45)cc3)=NN2C=O)cc1 (configuration not stated),> 100,> 100,> 100 µM,> 100 µM,> 100 µM,> 100 µM,> 100 µM,> 100,,,1.74,> 100 µM,> 100 µM,4.59 µM,> 100 µM,5.49 µM,> 100,4.61 µM,> 100 µM,6.82
O=C1OC(=O)C([Se]c2ccccc2)=C1[Se]c1ccccc1,> 100,> 100,> 100 µM,> 100 µM,> 100 µM,> 100 µM,,> 100,,,,,,,,,,,,
COc1cccc(/C=N\NC(=O)C(C)SC(C)C(=O)N/N=C/c2cccc(OC)c2)c1 (configuration not stated),> 100,39.3,35.9 µM,33.2 µM,> 63.9 µM,36.6 µM,> 85.5 µM,45.5,,,,,,,,,,,,
C=C1CC[C@H]2C(C)=CC[C@H]3C(=C)C(=O)O[C@@H]3[C@@H]12,> 100,,> 100 µM,,> 100 µM,> 100 µM,> 100 µM,> 100,,,,,,,,,,,> 100 µM,
O=C(/C=C/c1ccccc1O)c1ccccc1Cl,> 100,> 100,> 100 µM,68.8 µM,> 100 µM,> 100 µM,> 100 µM,> 100,,,,,,,,,,,,
CC1(C)OC(=O)C(=C2CCC(C(=O)Nc3cccc(C(F)(F)F)c3)N2)C(=O)O1 (configuration not stated),> 100,> 100,> 100 µM,> 100 µM,> 100 µM,> 100 µM,> 100 µM,> 100,,,,,,,,,,,,
O=C1C(=O)C2(CC1S(=O)(=O)c1ccccc1)c1ccccc1-c1ccccc12 (configuration not stated),28.2,> 10,34.3 µM,> 100 µM,26.1 µM,68.9 µM,47 µM,40.4,,,,,,,,,,,,
O=C1CCC(=O)N1Sc1ccccc1,> 100,> 100,> 100 µM,> 100 µM,> 100 µM,> 100 µM,> 100 µM,> 100,,,,,,,,,,,,

# From PubChem BioAssay (NCI)
